Assay results reported in patent US4359583A, “Antibiotics TM-531 B and TM-531 C” (Taisho Pharmaceutical Co., Ltd., priority 1980, dated 1982).
Entries after “also recorded” stand apart in the source; their conditions may differ.

What was measured:
[1] = Improving the feed efficiency when incorporated into feeds; format: in vivo; conditions: incorporated into feeds for poultry, hogs, etc.
yeasts = assay: Physiological properties: growth inhibition; format: cell-based; conditions: in words
Solubility in solvents = format: physicochemical; conditions: measured as the sodium salt
[2] = system: protozoa as hog dysentery, coccidium, toxoplasma and trypanosoma; assay: Physiological properties: growth inhibition; format: cell-based; conditions: in words
[3] = Classification of Nature (basic, acidic or neutral); format: physicochemical; conditions: measured as the sodium salt
[4] = system: Staphylococcus aureus TPR-23; assay: MIC, antibacterial activity on heart infusion agar; format: cell-based; conditions: inoculum 10^6 CFU/ml
Procedure: (§1) Using heart infusion agar as a medium the MIC (minimum inhibition concentration) of Antibiotics TM-531 B and TM-531 C against various bacteria were measured using an inoculum size of 10^6 CFU/ml, to determine its antibacterial activity.

[5] = system: Staphylococcus aureus FDA 209P; assay: MIC, antibacterial activity on heart infusion agar; format: cell-based; conditions: inoculum 10^6 CFU/ml
Procedure: as §1

Bacillus licheniformis = assay: MIC, antibacterial activity on heart infusion agar; format: cell-based; conditions: inoculum 10^6 CFU/ml
Procedure: as §1

[6] = system: Staphylococcus epidermidis IID 866; assay: MIC, antibacterial activity on heart infusion agar; format: cell-based; conditions: inoculum 10^6 CFU/ml
Procedure: as §1

[7] = system: Bacillus subtilis ATCC 6633; assay: MIC, antibacterial activity on heart infusion agar; format: cell-based; conditions: inoculum 10^6 CFU/ml
Procedure: as §1

[8] = system: Staphylococcus aureus Smith; assay: MIC, antibacterial activity on heart infusion agar; format: cell-based; conditions: inoculum 10^6 CFU/ml
Procedure: as §1

[9] = system: Pseudomonas aeruginosa IID 1052; assay: MIC, antibacterial activity on heart infusion agar; format: cell-based; conditions: inoculum 10^6 CFU/ml
Procedure: as §1

[10] = system: Streptococcus faecalis ATCC 8043; assay: MIC, antibacterial activity on heart infusion agar; format: cell-based; conditions: inoculum 10^6 CFU/ml
Procedure: as §1

[11] = system: Escherichia coli NIHJ C-2; assay: MIC, antibacterial activity on heart infusion agar; format: cell-based; conditions: inoculum 10^6 CFU/ml
Procedure: as §1

Micrococcus luteus NIHJ = assay: MIC, antibacterial activity on heart infusion agar; format: cell-based; conditions: inoculum 10^6 CFU/ml
Procedure: as §1

[12] = system: Staphylococcus epidermidis TPR-25; assay: MIC, antibacterial activity on heart infusion agar; format: cell-based; conditions: inoculum 10^6 CFU/ml
Procedure: as §1

gram-negative bacteria = assay: Physiological properties: growth inhibition; format: cell-based; conditions: in words
[13] = system: plant pathogenic microorganisms; assay: Physiological properties: growth inhibition; format: cell-based; conditions: in words
gram-positive bacteria = assay: Physiological properties: growth inhibition; format: cell-based; conditions: in words

CC/C=C(\C[C@@]1(C)COC2(CC[C@@](C)([C@H]3C[C@H](O[C@@H]4C[C@@H](O)[C@H](OC)[C@@H](C)O4)[C@@H](C)C4(O[C@@H](C5O[C@@](O)(CO)[C@H](C)C[C@@H]5C)C[C@H]4C)O3)O2)C[C@@H]1O)C(=O)C(C)CC(C)C(=O)[O-].[Na+] (some centres unmarked) [TM-531 C]
improving the feed efficiency [1]: effective | activity against yeasts (yeasts): ineffective | Solubility in organic solvents (Solubility in solvents; methanol, ethanol, acetone, ethyl acetate, n-hexane, chloroform and benzene): soluble | Solubility in water (Solubility in solvents; water): Insoluble | growth inhibition of protozoa [2]: inhibits the growth; also recorded: excellent growth inhibitory activity | Classification of Nature (basic, acidic or neutral) [3]: Acidic | MIC (minimum inhibition concentration) [4]: 50 mg/L | MIC (minimum inhibition concentration) [5]: 12.5 mg/L | MIC (minimum inhibition concentration) (Bacillus licheniformis): 12.5 mg/L | MIC (minimum inhibition concentration) [6]: 25 mg/L | MIC (minimum inhibition concentration) [7]: 25 mg/L | MIC (minimum inhibition concentration) [8]: 25 mg/L | MIC (minimum inhibition concentration) [9]: > 100 mg/L | MIC (minimum inhibition concentration) [10]: 12.5 mg/L | MIC (minimum inhibition concentration) [11]: > 100 mg/L | MIC (minimum inhibition concentration) (Micrococcus luteus NIHJ): 12.5 mg/L | MIC (minimum inhibition concentration) [12]: 25 mg/L | activity against gram-negative bacteria (gram-negative bacteria): ineffective | growth inhibition of plant pathogenic microorganisms [13]: inhibits the growth; also recorded: excellent growth inhibitory activity | growth inhibition of gram-positive bacteria (gram-positive bacteria): inhibits the growth; also recorded: excellent growth inhibitory activity
